Assay results from patent US20230346769A1, “USE OF SIMPLE ACYCLIC POLYAMINES FOR THE TREATMENT OF DISEASES CAUSED BY PARASITES OF THE GENUS LEISHMANIA” (Universidad De Granada, priority 2020, published 2023).
“Also recorded” adds a separate entry of the source.

What was measured:
[1] = system: intracellular forms of L.braziliensis in J774.2 macrophages; assay: Infection rate and parasite growth in infected macrophage cultures; type: cell-based, Leishmania braziliensis; details: compound at IC25, 10 days
Experimental: (§1) Methodology: Macrophages of the J774.2 line preserved in the laboratory of the present inventors by cryopreservation at -80° C. and successive runs in MEM+Glutamine + 20% SBFI medium were used, which were deposited in a […] tube and centrifuged at 100 g for 5 minutes. The supernatant was discarded and the cells were resuspended in medium corresponding to a final concentration of 1×10^6 cells/ml. Subsequently, 10 μl of the cell suspension was deposited into each well of a 24-well culture plate each with a 10 mm diameter round slide. A final volume of 500 μl was completed with the culture medium and incubated for 24 h at 37° C. in humid atmosphere with 5% CO2. […] The non-phagocytic parasites and products were removed by washing and the infected cultures were maintained for 10 days in fresh medium added every 48 hours. The activity of the compounds was determined by the percentage of infected cells and the number of amastigotes per infected cell. Finally, the cultures were fixed and stained with methanol and Giemsa.

L.donovani promastigotes = assay: Alteration of production and excretion of metabolites (1H NMR); type: cell-based, Leishmania donovani; details: compound at IC25, 72 h
Experimental: (§2) Methodology: Promastigotes from the three species studied were used for this study. They were left to grow in a culture flask and subsequently transferred to a 25 ml capacity conical bottom flask (steriling) so that there were 5×10^4 parasites/ml in each one. The amount of compound needed to reach IC25 of each product was added and completed with fresh culture medium to reach a final volume of 3 ml and incubated at 28° C. for 72 h. After that time, the flasks were centrifuged at 400 g for 10 minutes, and 2 ml of supernatant was transferred to Eppendorf® tubes. Next, they were analysed using proton nuclear resonance and the spectra were analysed with the Mestre Nova® software to obtain the metabolite production and excretion graphs. From these graphs, it can be inferred which enzyme has seen its activity altered by action of the compounds, depending on the increase or decrease of the metabolite produced by it.
(§3) Both the decrease and increase in the metabolites analysed can be positive effects, indicating a malfunctioning of the metabolic pathway.

[2] = system: intracellular forms of L.donovani in J774.2 macrophages; assay: Infection rate and parasite growth in infected macrophage cultures; type: cell-based, Leishmania donovani; details: compound at IC25, 10 days
Experimental: as §1

[3] = system: FeSOD of the promastigote forms of L.braziliensis; assay: In vitro inhibition of FeSOD (NBT reduction); type: biochemical, Leishmania braziliensis
Experimental: Methodology: Compounds that were selected from the leishmanicidal activity shown in previous experiments were evaluated as inhibitors of FeSOD enzyme activity, which is unique to the kinetoplastid parasites to which Leishmania belongs. Being exclusive, it is absent in the vertebrate host, since these usually have an analogous form of that enzyme, but complexed to a copper or zinc atom (Cu/ZnSOD). For this reason, this enzyme is a therapeutic target for the design of new drugs, since the capture of the metal ion by complexing mechanisms can inactivate the enzyme and compromise the survival of the parasite with the appearance of free radicals.
Inhibition caused by the novel compounds on FeSOD/ Cu-Zn SOD activity was quantified on the spectrophotometer at 560 nm according to the technique described by [W F. Beyer. I. Fridovich. Anal Biochem. 1987. […]
Briefly, the cultured parasites as described in Example 1 underwent centrifugation, the pellet was resuspended (0.5 - 0.6 g/ml) in 3 ml of STE buffer (0.25 M. Tris-HCI 25 mM sucrose. 1 M EDTA. pH 7.8) and underwent 3 cycles of sonication from 30 s at 60 V. Then, it was centrifuged at 1500 g for 10 min at 4° C. and the pellet was washed 3 times with ice-cooled STE buffer. […] Protein concentrations were determined by means of the Bradford method (Sigma-Aldrich) using bovine serum albumin as standard. […]

Leishmania donovani = assay: Mitochondrial membrane potential by rhodamine staining and flow cytometry; type: cell-based; details: L.donovani, compound at IC25, 72 h
Experimental: Methodology: Similar to the assay of Example 5, an amount of 5×10^4 parasites/ml of Leishmania donovani was re-treated with the IC25 of compounds 2 and 4, this time in a final volume in the 5 ml steriling conical bottom flasks. Again, after 72 h of incubation under the same conditions as described in Example 5, the flasks were centrifuged at 400 g for 10 minutes and the pellet was washed by resuspending with PBS three times. The pellet was resuspended with 0.5 mL of PBS with 10 µg/mL rhodamine after the last wash. A cytometry analysis was performed after 20 minutes of action of the rhodamine.

L.infantum promastigotes = assay: Alteration of production and excretion of metabolites (1H NMR); type: cell-based, Leishmania infantum; details: compound at IC25, 72 h, versus control
Experimental: as §2, §3

[4] = target: T1, CuZnSOD of human erythrocytes (Homo sapiens, UniProt P00441); assay: In vitro inhibition of CuZnSOD (NBT reduction); type: biochemical
T1 construct: the Cu/Zn-superoxide dismutase of human red blood cells from Boehringer Mannheim was used; purchased Boehringer Mannheim; host or cells: human red blood cells (erythrocytes)
Text: To conduct this assay, the Cu/Zn-superoxide dismutase of human red blood cells from Boehringer Mannheim was used, whilst the coenzymes and substrates were obtained from Sigma-Aldrich.
Inhibition caused by the novel compounds on FeSOD/ Cu-Zn SOD activity was quantified on the spectrophotometer at 560 nm according to the technique described by [W F. Beyer. I. Fridovich. Anal Biochem. 1987. 161: 559-66] based on the determination of the reduction of NBT (nitro blue tetrazolium) by superoxide ions and which the group of the present inventors has developed for the assay in trypanosomatides, being a routine technique in the laboratory of said group [F. Luque. et. al. Comp. Biochem. Physiol. C Toxicol. Pharmacol. 2000. […]
Briefly, the cultured parasites as described in Example 1 underwent centrifugation, the pellet was resuspended (0.5 - 0.6 g/ml) in 3 ml of STE buffer (0.25 M. Tris-HCI 25 mM sucrose. 1 M EDTA. pH 7.8) and underwent 3 cycles of sonication from 30 s at 60 V. Then, it was centrifuged at 1500 g for 10 min at 4° C. and the pellet was washed 3 times with ice-cooled STE buffer. […] Protein concentrations were determined by means of the Bradford method (Sigma-Aldrich) using bovine serum albumin as standard. […] A first measurement of the absorbance at 560 nm was made on a spectrophotometer and, after 10 minutes under light and under stirring conditions, the absorbance was re-determined. […]

T1 sequence (P00441 whole entry): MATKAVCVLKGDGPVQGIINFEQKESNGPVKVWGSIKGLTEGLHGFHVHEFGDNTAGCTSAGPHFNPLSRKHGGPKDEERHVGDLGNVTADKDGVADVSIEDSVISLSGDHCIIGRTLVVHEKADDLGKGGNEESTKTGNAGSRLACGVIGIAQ

SMILES | Number of amastigotes per infected cell [1] | Percentage of infection (infection rate) [1] | Production and excretion of metabolites (metabolism, other metabolites analysed) (L.donovani promastigotes) | Succinate production (L.donovani promastigotes; versus control) | Number of amastigotes per infected cell [2] | Percentage of infection (infection rate) [2] | Concentration for 50% inhibition (IC50) of FeSOD of L.braziliensis [3] | Effect on mitochondrial membrane potential (Leishmania donovani) | Succinate production (L.infantum promastigotes) | Concentration for 50% inhibition (IC50) of CuZnSOD of human erythrocytes [4]
CNCCNCc1cccnc1 [Compound 2, 1-{3-pyridyl)-2,5-diazahexane] | lowest values over time; also recorded: effective by decreasing | lowest values over time; also recorded: effective by decreasing | all the metabolites analysed increase | increase in succinate production | lowest values over time; also recorded: effective by decreasing | lowest values over time; also recorded: effective by decreasing | showed ability to inhibit FeSOD | only a slight depolarisation |  | 
CN(C)CCNCc1ccccn1 [Compound 4, 1-(2-pyridyl)-5-methyl-2,5-diazahexane] | effective by decreasing | effective by decreasing |  |  | effective by decreasing | effective by decreasing | lower than that necessary for the enzyme of human erythrocytes; also recorded: showed ability to inhibit FeSOD | only a slight depolarisation | increase in succinate production | high IC50 value
